Test results taken from US10766903B2 (ALMAC DISCOVERY LIMITED, priority 2016, dated 2020).

target: USP7 (Homo sapiens (Human), UniProt Q93009); assay: USP7 fluorescence polarisation (FP) biochemical assay, ubiquitin-Lys-TAMRA substrate; conditions: Table 4, biochemical assay; average of at least duplicate experiments; read-out: USP7 IC50
Experimental: Measurement of USP7 Inhibitory Activity
USP7 activity was monitored in a fluorescence polarisation (FP) homogeneous assay using the isopeptide ubiquitin-Lys-TAMRA substrate (U-558, Boston Biochem). Full-length USP7 was purchased from Boston Biochem (His6-USP7FL, E-519). Unless otherwise stated, all other reagents were purchased from Sigma-Aldrich. Enzymatic reactions were conducted in black flat-bottom polystyrene 384-well plates (Nunc) and 15 μL total volume. USP7 (2.5 nM, 5 μL) was incubated in assay buffer (50 mM HEPES (pH 7.2), 150 mM NaCl, 0.5 mM EDTA, 5 mM DTT, 0.05% BSA (w/v), 0.05% CHAPS) in the presence or absence of inhibitor (5 μl). Inhibitors were stored as 10 mM DMSO stocks in an inert environment (low humidity, dark, low oxygen, room temperature) using a Storage Pod System and serial dilutions were prepared in buffer just prior to the assay (from 200 to 0.1 μM, 8 dp curve). […] FP was measured every 15 min over a period of 1.5 h (within the linear range of the assay) using a Synergy 4 plate reader (BioTek) exciting at 530 nm and measuring the amount of parallel and perpendicular light at 575 nm. The FP signal was subsequently normalised to the control without compound present.

USP7, sequence (Q93009 whole entry): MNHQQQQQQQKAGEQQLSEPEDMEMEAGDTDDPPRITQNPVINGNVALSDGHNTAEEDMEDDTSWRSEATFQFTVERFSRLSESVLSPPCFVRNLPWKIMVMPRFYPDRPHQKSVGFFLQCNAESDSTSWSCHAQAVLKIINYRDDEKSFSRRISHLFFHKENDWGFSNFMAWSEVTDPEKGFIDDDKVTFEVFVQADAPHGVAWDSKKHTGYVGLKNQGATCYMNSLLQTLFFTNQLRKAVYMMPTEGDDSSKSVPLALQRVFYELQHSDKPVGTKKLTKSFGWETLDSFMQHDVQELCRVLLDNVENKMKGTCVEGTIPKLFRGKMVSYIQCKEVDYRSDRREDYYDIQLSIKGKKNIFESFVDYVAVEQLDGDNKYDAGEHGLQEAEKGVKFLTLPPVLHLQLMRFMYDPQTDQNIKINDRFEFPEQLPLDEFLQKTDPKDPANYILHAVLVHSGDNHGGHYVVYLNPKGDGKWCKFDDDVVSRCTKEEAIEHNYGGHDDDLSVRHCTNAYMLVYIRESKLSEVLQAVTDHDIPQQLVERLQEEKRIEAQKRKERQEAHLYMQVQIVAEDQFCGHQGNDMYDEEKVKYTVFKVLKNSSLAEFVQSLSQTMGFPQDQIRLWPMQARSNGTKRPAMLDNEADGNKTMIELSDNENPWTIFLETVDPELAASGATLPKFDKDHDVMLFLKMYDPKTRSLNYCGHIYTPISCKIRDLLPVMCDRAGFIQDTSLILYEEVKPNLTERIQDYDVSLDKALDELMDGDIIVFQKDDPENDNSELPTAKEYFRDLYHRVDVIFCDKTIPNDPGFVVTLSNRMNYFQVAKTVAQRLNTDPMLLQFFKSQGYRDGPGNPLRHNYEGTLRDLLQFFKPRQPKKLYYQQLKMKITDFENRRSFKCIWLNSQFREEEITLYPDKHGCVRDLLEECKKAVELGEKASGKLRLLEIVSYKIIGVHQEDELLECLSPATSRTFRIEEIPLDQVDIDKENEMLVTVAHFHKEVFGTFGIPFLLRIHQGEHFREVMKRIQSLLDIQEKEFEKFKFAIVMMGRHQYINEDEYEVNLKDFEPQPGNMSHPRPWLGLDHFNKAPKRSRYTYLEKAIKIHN

| SMILES | IC50 [nM] |
| --- | --- |
| C[C@H](CC(=O)N1CCC(O)(Cn2cnc3c(ncn3-c3ccc(CN)cc3)c2=O)CC1)c1ccccc1 [Example 68, (R)-9-(4-(Aminomethyl)phenyl)-1-((4-hydroxy-1-(3-phenylbutanoyl)piperidin-4-yl)methyl)-1H-purin-6(9H)-one] | < 250 |
| C[C@H](CC(=O)N1CCC(O)(Cn2cnc(NCCN3CCC[C@@H]3C)cc2=O)CC1)c1ccccc1 [Example 69, 3-((4-Hydroxy-1-((R)-3-phenylbutanoyl)piperidin-4-yl)methyl)-6-((2-((S)-2-methylpyrrolidin-1-yl)ethyl)amino)pyrimidin-4(3H)-one, Formic Acid] | < 250 |
| COC[C@H]1CCCN1CCNc1cc(=O)n(CC2(O)CCN(C(=O)C[C@@H](C)c3ccccc3)CC2)cn1 [Example 70, 3-((4-Hydroxy-1-((R)-3-phenylbutanoyl)piperidin-4-yl)methyl)-6-((2-((R)-2-(methoxymethyl)pyrrolidin-1-yl)ethyl)amino)pyrimidin-4(3H)-one] | 1000 to 200000 |
| C[C@H]1CCN(CCNc2cc(=O)n(CC3(O)CCN(C(=O)C[C@@H](C)c4ccccc4)CC3)cn2)C1 [Example 71, 3-((4-Hydroxy-1-((R)-3-phenylbutanoyl)piperidin-4-yl)methyl)-6-((2-((S)-3-methylpyrrolidin-1-yl)ethyl)amino)pyrimidin-4(3H)-one, Formic Acid] | < 250 |
| Cc1nc2c(=O)n(CC3(O)CCN(C(=O)C[C@@H](C)c4ccccc4)CC3)cnc2n1-c1ccc(CN)cc1 [Example 72, (R)-9-(4-(Aminomethyl)phenyl)-1-((4-hydroxy-1-(3-phenylbutanoyl)piperidin-4-yl)methyl)-8-methyl-1H-purin-6(9H)-one] | < 250 |
| C[C@@H](N)c1ccc(-c2c3ncn(CC4(O)CCN(C(=O)C[C@H](c5ccccc5)C(F)(F)F)CC4)c(=O)c3nn2C)cc1 [Example 75, 3-(4-((R)-1-Aminoethyl)phenyl)-6-((4-hydroxy-1-((R)-4,4,4-trifluoro-3-phenylbutanoyl)piperidin-4-yl)methyl)-2-methyl-2H-pyrazolo[4,3-d]pyrimidin-7(6H)-one] | < 250 |
| C[C@H](N)c1ccc(-c2c3ncn(CC4(O)CCN(C(=O)C[C@H](c5ccccc5)C(F)(F)F)CC4)c(=O)c3nn2C)cc1 [Example 76, 3-(4-((S)-1-Aminoethyl)phenyl)-6-((4-hydroxy-1-((R)-4,4,4-trifluoro-3-phenylbutanoyl)piperidin-4-yl)methyl)-2-methyl-2H-pyrazolo[4,3-d]pyrimidin-7(6H)-one] | < 250 |
| NCc1ccc(-n2cnc3c(=O)n(CC4(O)CCN(C(=O)C[C@H](c5ccccc5)C(F)(F)F)CC4)cnc32)cc1 [Example 77, (R)-9-(4-(Aminomethyl)phenyl)-1-((4-hydroxy-1-(4,4,4-trifluoro-3-phenylbutanoyl)piperidin-4-yl)methyl)-1H-purin-6(9H)-one] | < 250 |
| Cc1nc2c(=O)n(CC3(O)CCN(C(=O)C[C@H](c4ccccc4)C(F)(F)F)CC3)cnc2n1-c1ccc(CN)cc1 [Example 78, (R)-9-(4-(Aminomethyl)phenyl)-1-((4-hydroxy-1-(4,4,4-trifluoro-3-phenylbutanoyl)piperidin-4-yl)methyl)-8-methyl-1H-purin-6(9H)-one] | < 250 |

Results, then the compound that gave them:

| IC50 [nM] | SMILES |
| --- | --- |
| < 250 | CN(C)Cc1ccc(-c2c3ncn(CC4(O)CCN(C(=O)C[C@H](c5ccccc5)C(F)(F)F)CC4)c(=O)c3nn2C)cc1 [Example 79, (R)-3-(4-((Dimethylamino)methyl)phenyl)-6-((4-hydroxy-1-(4,4,4-trifluoro-3-phenylbutanoyl)piperidin-4-yl)methyl)-2-methyl-2H-pyrazolo[4,3-d]pyrimidin-7(6H)-one] |
| < 250 | Cn1nc2c(=O)n(CC3(O)CCN(C(=O)C[C@H](c4ccccc4)C(F)F)CC3)cnc2c1-c1ccc(CN)cc1 [Example 80, (R)-3-(4-(Aminomethyl)phenyl)-6-((1-(4,4-difluoro-3-phenylbutanoyl)-4-hydroxypiperidin-4-yl)methyl)-2-methyl-2H-pyrazolo[4,3-d]pyrimidin-7(6H)-one] |
| 1000 to 200000 | CC(C)c1cc(=O)n(CC2(O)CCN(C(=O)C[C@@H](C)c3ccccc3)CC2)cn1 [Example 81, (R)-3-((4-Hydroxy-1-(3-phenylbutanoyl)piperidin-4-yl)methyl)-6-isopropylpyrimidin-4(3H)-one] |
| < 250 | Cn1nc2c(=O)n(CC3(O)CCN(C(=O)C[C@H](c4ccccc4)C(F)(F)F)CC3)cnc2c1-c1ccc(CN)c(F)c1 [Example 82, (R)-3-(4-(Aminomethyl)-3-fluorophenyl)-6-((4-hydroxy-1-(4,4,4-trifluoro-3-phenylbutanoyl)piperidin-4-yl)methyl)-2-methyl-2H-pyrazolo[4,3-d]pyrimidin-7(6H)-one] |
| < 250 | CNCc1ccc(-c2c3ncn(CC4(O)CCN(C(=O)C[C@H](c5ccccc5)C(F)(F)F)CC4)c(=O)c3nn2C)cc1 [Example 83, (R)-6-((4-Hydroxy-1-(4,4,4-trifluoro-3-phenylbutanoyl)piperidin-4-yl)methyl)-2-methyl-3-(4-((methylamino)methyl)phenyl)-2H-pyrazolo[4,3-d]pyrimidin-7(6H)-one] |
| 1000 to 200000 | Cn1nc2c(=O)n(CC3(O)CCN(C(=O)C[C@H](c4cc(F)cc(F)c4)C(F)(F)F)CC3)cnc2c1-c1ccc(CN)cc1 [Example 84, (R)-3-(4-(Aminomethyl)phenyl)-6-((1-(3-(3,5-difluorophenyl)-4,4,4-trifluorobutanoyl)-4-hydroxypiperidin-4-yl)methyl)-2-methyl-2H-pyrazolo[4,3-d]pyrimidin-7(6H)-one] |
| < 250 | Cn1nc2c(=O)n(CC3(O)CCN(C(=O)C[C@H](c4ccc(F)cc4)C(F)(F)F)CC3)cnc2c1-c1ccc(CN)cc1 [Example 85, (R)-3-(4-(Aminomethyl)phenyl)-6-((4-hydroxy-1-(4,4,4-trifluoro-3-(4-fluorophenyl)butanoyl)piperidin-4-yl)methyl)-2-methyl-2H-pyrazolo[4,3-d]pyrimidin-7(6H)-one] |
| < 250 | Cn1nc2c(=O)n(CC3(O)CCN(C(=O)C[C@H](c4ccccc4)C(F)(F)F)CC3)cnc2c1-c1ccc(CCN)cc1 [Example 87, (R)-3-(4-(2-Aminoethyl)phenyl)-6-((4-hydroxy-1-(4,4,4-trifluoro-3-phenylbutanoyl)piperidin-4-yl)methyl)-2-methyl-2H-pyrazolo[4,3-d]pyrimidin-7(6H)-one] |
| < 250 | Cn1nc2c(=O)n(CC3(O)CCN(C(=O)C[C@H](c4ccccc4)C(F)(F)F)CC3)cnc2c1-c1ccc(C2(N)CCC2)cc1 [Example 88, (R)-3-(4-(1-Aminocyclobutyl)phenyl)-6-((4-hydroxy-1-(4,4,4-trifluoro-3-phenylbutanoyl)piperidin-4-yl)methyl)-2-methyl-2H-pyrazolo[4,3-d]pyrimidin-7(6H)-one] |
| 1000 to 200000 | CS(=O)(=O)c1nc2ncn(CC3(O)CCN(C(=O)CCc4ccccc4)CC3)c(=O)c2s1 [Example 92, 6-((4-Hydroxy-1-(3-phenylpropanol)piperidin-4-yl)methyl)-2-(methylsulfonyl)thiazolo[4,5-d]pyrimidin-7(6H)-one] |
| 1000 to 200000 | CNc1nc2ncn(CC3(O)CCN(C(=O)CCc4ccccc4)CC3)c(=O)c2s1 [Example 93, 6-((4-Hydroxy-1-(3-phenylpropanoyl)piperidin-4-yl)methyl)-2-(methylamino)thiazolo[4,5-d]pyrimidin-7(6H)-one] |
| 1000 to 200000 | Cn1nc2c(=O)n(CC3(O)CCN(C(=O)CCc4ccccc4)CC3)cnc2c1C(F)(F)F [Example 95, 6-((4-Hydroxy-1-(3-phenylpropanoyl)piperidin-4-yl)methyl)-2-methyl-3-(trifluoromethyl)-2H-pyrazolo[4,3-d]pyrimidin-7(6H)-one] |
| 1000 to 200000 | C[C@H](CC(=O)N1CCC(O)(Cn2cnc3c(nc(C(F)(F)F)n3C)c2=O)CC1)c1ccccc1 [Example 96, (R)-1-((4-Hydroxy-1-(3-phenylbutanoyl)piperidin-4-yl)methyl)-9-methyl-8-(trifluoromethyl)-1H-purin-6(9H)-one] |

same assay, conditions: USP7 IC50, Table 4, biochemical assay; average of at least duplicate experiments

| SMILES | IC50 [nM] |
| --- | --- |
| C[C@H](CC(=O)N1CCC(O)(Cn2cnc(NCCN3CC[C@@H](F)C3)cc2=O)CC1)c1ccccc1 [Example 73, 6-((2-((R)-3-Fluoropyrrolidin-1-yl)ethyl)amino)-3-((4-hydroxy-1-((R)-3-phenylbutanoyl)piperidin-4-yl)methyl)pyrimidin-4(3H)-one, Formic Acid] | 250 to 999 |
| C[C@H](CC(=O)N1CCC(O)(Cn2cnc(NCCN3CC[C@H](F)C3)cc2=O)CC1)c1ccccc1 [Example 74, 6-((2-((S)-3-Fluoropyrrolidin-1-yl)ethyl)amino)-3-((4-hydroxy-1-((R)-3-phenylbutanoyl)piperidin-4-yl)methyl)pyrimidin-4(3H)-one, Formic Acid] | 250 to 999 |
| C[C@H](CC(=O)N1CCC(O)(Cn2cnc(NCCN3Cc4cccc(F)c4C3)cc2=O)CC1)c1ccccc1 [Example 86, (R)-6-((2-(4-Fluoroisoindolin-2-yl)ethyl)amino)-3-((4-hydroxy-1-(3-phenylbutanoyl)piperidin-4-yl)methyl)pyrimidin-4(3H)-one, Formic Acid] | 250 to 999 |
| O=C(C[C@H](c1ccccc1)C(F)F)N1CCC(O)(Cn2cnc(NCCN3CCCC3)cc2=O)CC1 [Example 89, (R)-3-((1-(4,4-Difluoro-3-phenylbutanoyl)-4-hydroxypiperidin-4-yl)methyl)-6-((2-(pyrrolidin-1-yl)ethyl)amino)pyrimidin-4(3H)-one, Formic Acid] | 250 to 999 |
